From PubChem BioAssay (NCI)
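Grown in 96-well plates, cells were treated for 48 hours with each compound at five concentrations. Insufficient inhibition: endpoint recorded as highest concentration tested. Here, GI50 denotes the concentration required for 50% inhibition of growth. TGI is the concentration that stops growth completely.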

Key:
Test in all cases: NCI tumour cell line growth inhibition, 48 h
[1] = system: HOP-92 NSCLC
[2] = system: OVCAR-5 ovarian
[3] = system: SK-MEL-5 melanoma
[4] = system: MDA-MB-468 breast
[5] = system: SF-295 CNS
[6] = system: HL-60(TB) leukemia
[7] = system: SF-268 CNS
[8] = system: TK-10 renal
[9] = system: A498 renal
[10] = system: RXF 393 renal
[11] = system: 786-0 renal
[12] = system: BT-549 breast
[13] = system: DU-145 prostate
[14] = system: A549 NSCLC
[15] = system: HS 578T breast
[16] = system: LOX IMVI melanoma
[17] = system: EKVX NSCLC
[18] = system: NCI-H23 lung
[19] = system: MDA-MB-231 breast
[20] = system: OVCAR-8 ovarian
[21] = system: OVCAR-4 ovarian
[22] = system: SNB-19 CNS
[23] = system: U251 CNS
[24] = system: UACC-62 melanoma
[25] = system: UACC-257 melanoma
[26] = system: MCF7 breast
[27] = system: HT29 colon
[28] = system: MDA-MB-435
[29] = system: SK-MEL-28 melanoma
[30] = system: KM12 colon
[31] = system: T-47D breast
[32] = system: SN12C renal
[33] = system: HCT-116 colon
[34] = system: K-562 leukemia
[35] = system: UO-31 renal
[36] = system: COLO 205 colon
[37] = system: SNB-75 CNS
[38] = system: NCI/ADR-RES ovarian
[39] = system: SK-MEL-2 melanoma
[40] = system: HCT-15 colon
[41] = system: ACHN renal
[42] = system: SK-OV-3 ovarian
[43] = system: NCI-H226 lung
[44] = system: MALME-3M melanoma
[45] = system: HOP-62 NSCLC
[46] = system: CCRF-CEM leukemia
[47] = system: M14 melanoma
[48] = system: MOLT-4 leukemia
[49] = system: SW-620 colon
[50] = system: NCI-H460 lung
[51] = system: IGROV1 ovarian
[52] = system: NCI-H522 lung
[53] = system: OVCAR-3 ovarian
[54] = system: SF-539 CNS
[55] = system: HCC-2998 colon
[56] = system: CAKI-1 renal

CCn1c(SCC(=O)Nc2ccc(-c3nc4ccccc4[nH]3)cc2)nc2ccccc2c1=O gave a GI50 [1] of 1660 nM, a TGI [1] of 4050 nM and a GI50 [2] of 1480 nM. The TGI [2] was 2980 nM, the GI50 [3] was 1780 nM and the TGI [3] was 3330 nM. The GI50 [4] was 1560 nM, the TGI [4] was 3040 nM and the GI50 [5] was 1670 nM. For the same molecule, the TGI [5] was 3090 nM, the GI50 [6] was 2460 nM and the TGI [6] was 6020 nM. The GI50 [7] was 2060 nM, the TGI [7] was 4560 nM and the GI50 [8] was 1800 nM. For the same molecule, the TGI [8] was 3260 nM, the GI50 [9] was 1610 nM and the TGI [9] was 3180 nM. For the same molecule, the GI50 [10] was 1710 nM, the TGI [10] was 3190 nM and the GI50 [11] was 1650 nM. The TGI [11] was 3020 nM, the GI50 [12] was 1500 nM and the TGI [12] was 2860 nM. It also gave a GI50 [13] of 2020 nM, a TGI [13] of 3990 nM and a GI50 [14] of 1740 nM. The TGI [14] was 3590 nM, the GI50 [15] was 2060 nM and the TGI [15] was 4660 nM. It also gave a GI50 [16] of 1700 nM, a TGI [16] of 3100 nM and a GI50 [17] of 1840 nM. It also gave a TGI [17] of 3900 nM, a GI50 [18] of 2040 nM and a TGI [18] of 4730 nM. The GI50 [19] was 1820 nM, the TGI [19] was 3350 nM and the GI50 [20] was 2090 nM. It also gave a TGI [20] of 4600 nM, a GI50 [21] of 1750 nM and a TGI [21] of 3200 nM. The GI50 [22] was 1750 nM, the TGI [22] was 3310 nM and the GI50 [23] was 1750 nM. It also gave a TGI [23] of 3390 nM, a GI50 [24] of 1560 nM and a TGI [24] of 2930 nM. It also gave a GI50 [25] of 1790 nM, a TGI [25] of 3450 nM and a GI50 [26] of 1550 nM. The TGI [26] was 3000 nM, the GI50 [27] was 1990 nM and the TGI [27] was 4260 nM. It also gave a GI50 [28] of 1730 nM, a TGI [28] of 3110 nM and a GI50 [29] of 1680 nM. It also gave a TGI [29] of 3050 nM, a GI50 [30] of 2500 nM and a TGI [30] of 6490 nM. For the same molecule, the GI50 [31] was 1710 nM, the TGI [31] was 3490 nM and the GI50 [32] was 1470 nM. It also gave a TGI [32] of 2820 nM, a GI50 [33] of 1750 nM and a TGI [33] of 3130 nM. The GI50 [34] was 2910 nM, the TGI [34] was > 100000 nM and the GI50 [35] was 1530 nM. The TGI [35] was 2880 nM, the GI50 [36] was 2300 nM and the TGI [36] was 4270 nM. It also gave a GI50 [37] of 1290 nM, a TGI [37] of 2610 nM and a GI50 [38] of 1820 nM. The TGI [38] was 3650 nM, the GI50 [39] was 1910 nM and the TGI [39] was 3950 nM. It also gave a GI50 [40] of 1720 nM, a TGI [40] of 3300 nM and a GI50 [41] of 1700 nM. For the same molecule, the TGI [41] was 3070 nM, the GI50 [42] was 1930 nM and the TGI [42] was 3920 nM. For the same molecule, the GI50 [43] was 1670 nM, the TGI [43] was 3600 nM and the GI50 [44] was 1640 nM. For the same molecule, the TGI [44] was 3020 nM, the GI50 [45] was 1700 nM and the TGI [45] was 3180 nM. The GI50 [46] was 25000 nM, the TGI [46] was > 100000 nM and the GI50 [47] was 1700 nM. For the same molecule, the TGI [47] was 3150 nM, the GI50 [48] was 4210 nM and the TGI [48] was > 100000 nM. The GI50 [49] was 1870 nM, the TGI [49] was 3500 nM and the GI50 [50] was 1770 nM. For the same molecule, the TGI [50] was 3290 nM, the GI50 [51] was 1690 nM and the TGI [51] was 3330 nM. For the same molecule, the GI50 [52] was 1770 nM, the TGI [52] was 3510 nM and the GI50 [53] was 1780 nM. It also gave a TGI [53] of 3280 nM, a GI50 [54] of 1760 nM and a TGI [54] of 3150 nM. For the same molecule, the GI50 [55] was 2040 nM, the TGI [55] was 4890 nM and the GI50 [56] was 1780 nM. It also gave a TGI [56] of 3290 nM.
